Assay results taken from patent publication EP4725957A1, “GROUP OF CYCLIC ALKALINE LIPOPEPTIDE COMPOUNDS, AND PREPARATION METHOD THEREFOR AND USE THEREOF” (Institute of Medicinal Biotechnology, Chinese Academy of …, priority 2023, dated 2024).
Bridge positions count the residues as written; N and C are the ends. Square brackets hold non-standard residues; d marks the D form. Peptide text beside a SMILES is read from it. * marks the point of attachment. Heptanoyl(6-Me) = CC(C)CCCCC(=O)*; Dab = NCC[C@H](N)C(=O)O; Dap = NC[C@H](N)C(=O)O

Key:
[1] = Nephrotoxicity assay: in vitro cytotoxicity of HK-2 cells by CCK-8 assay; type: cell-based; settings: human, HK-2 cells (human renal), 72 h incubation with drug-containing medium
Procedure, shortened: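 Compounds in sterile water, diluted to final 500, 250, 200, 100, 50, 25 and 12.5 µg/mL, were applied for 72 h to human HK-2 kidney cells. Absorbance at 450 nm after 3 h CCK-8 gave viability against untreated wells, and IC50 came from logarithmic regression; three replicates.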

[2] = Acute toxicity test in healthy mice, single tail vein injection; type: in vivo; settings: mouse, in vivo, iv; ICR mice, single tail vein injection, Bliss method
Procedure: (§1) Healthy ICR mice aged 5-6 weeks were selected, with 5-10 mice in each group, and administered via a single tail vein injection at an administration volume of 20 mL/kg. In the preliminary test, the drug dose concentrations that caused 100% mortality and no mortality in mice after a single intravenous injection were determined. Based on this dose range, 4-5 dose groups were set up, with a dose ratio of 1:0.5 to 1:0.8 between adjacent groups. The mortality of animals within 7 days after administration was recorded. According to the mortality rate of experimental animals in each group, the median lethal dose (LD50) of the test samples, i.e., the dose causing 50% mortality of the tested animals, was calculated by the Bliss method.

[3] = system: Healthy ICR mice; test: as above; type: in vivo; settings: within 7 days
Procedure: as §1

[4] = system: Pseudomonas aeruginosa ATCC27853; test: In vivo antibacterial (protection) test in infected mice; settings: infected ICR mice; for mortality rate: 7 days observation
Excerpt: Pseudomonas aeruginosa ATCC27853 was selected for the determination of in vivo antibacterial activity.
One day before infection, the test bacteria were inoculated onto the corresponding nutrient agar plates and cultured overnight. On the day of infection, single colonies grown on the plates were picked and suspended in sterile normal saline, and the suspension was mixed thoroughly to obtain the original bacterial solution. The bacterial solution was then adjusted to the required concentration with 5% dried yeast powder and prepared freshly prior to use.
Healthy ICR mice were randomly divided into groups, with 5 mice per group, half male and half female. Bacterial solutions of different dilutions were aspirated and injected intraperitoneally into mice at a volume of 0.5 mL per 20 g of body weight. The mortality of mice was recorded within 7 days after infection. The minimum bacterial dose causing 100% mortality in mice was defined as the minimum lethal dose (MLD), which was used as the infection dose for the in vivo protection test.
Drug administration was performed via tail vein injection at 2 h, 8 h, 24 h, and 30 h after infection, with a total of 4 administrations, and the administration volume was 20 mL/kg. For the preparation of drug solutions, Compound 7, together with the control drugs polymyxin B and meropenem, were dissolved in normal saline to the required concentrations for tail vein injection, and all solutions were prepared freshly prior to use.
In the preliminary test, the drug dose concentrations that caused 100% mortality and no mortality in mice after infection with the tested bacteria were determined. Based on this dose range, 4-5 dose groups were established, with a dose ratio of 1:0.5 to 1:0.8 between adjacent groups.
Mice were randomly grouped according to body weight, with 8 mice per group (half male and half female). Each mouse was intraperitoneally infected with the test bacterial solution at a volume of 0.5 mL per 20 g of body weight, followed by tail vein injection at 2 h, 8 h, 24 h, and 30 h after infection. Mice in the blank control group were not infected with bacterial solution but were only given an equal volume of vehicle at an administration volume of 20 mL/kg. The mortality of mice was observed and recorded for 7 consecutive days.
The minimum lethal bacterial concentration of Pseudomonas aeruginosa ATCC27853 for intraperitoneal infection in mice was 4.2 × 10^2 CFU/mL, which was used as the infection dose in the formal test.
Mice in the infection control group were intraperitoneally inoculated with Pseudomonas aeruginosa ATCC27853 bacterial solution at the MLD concentration ([…]). Infection symptoms began to appear 3-4 hours after inoculation, and all 8 animals died within 48 hours (8/8), with a mortality rate of 100%.

[5] = tail vein twice daily for 2 days, Bliss method

CC(C)CCCCC(=O)N[C@@H](CCN)C(=O)N[C@H](C(=O)N[C@@H](CN)C(=O)N[C@H]1CCNC(=O)[C@H]([C@@H](C)O)NC(=O)[C@H](CCN)NC(=O)[C@H](CCN)NC(=O)[C@H]([C@@H](C)O)NC(=O)[C@@H](Cc2ccccc2)NC(=O)[C@H](CCN)NC1=O)[C@@H](C)O [Compound 7, 6-methylheptanoyl-Dab-Thr-Dap-ring(4-10)[Dab-Dab-D-Phe-Thr-Dab-Dab-Thr]] ({Heptanoyl(6-Me)}-[Dab]T[Dap][Dab][Dab][dF]T[Dab][Dab]T; lactam 4-C)
IC50 at 72 h [1]: > 500 mg/L | LD50 at 168 h [2]: 24.4 mg/kg | mortality rate ([3]; single tail vein injection 15.36 mg/kg): 0% | mortality rate ([3]; single tail vein injection 19.2 mg/kg): 12.5% | mortality rate ([3]; single tail vein injection 24 mg/kg): 25% | mortality rate ([3]; single tail vein injection 30 mg/kg): 100% | mortality rate ([4]; 3.4 mg/kg tail vein twice daily for 2 days): 100% | mortality rate ([4]; 4.9 mg/kg tail vein twice daily for 2 days): 87.5% | mortality rate ([4]; 7 mg/kg tail vein twice daily for 2 days): 37.5% | mortality rate ([4]; 10 mg/kg tail vein twice daily for 2 days): 0% | ED5 [4, 5]: 4.54 mg/kg | ED50 [4, 5]: 6.38 mg/kg | ED95 [4, 5]: 8.96 mg/kg
